Experimental data taken from US12458609B2 (The General Hospital Corporation, priority 2018, dated 2025).

Experiments:
[1] = in humans; cited from earlier work
[2] = system: rats anesthetized with ketamine; assay: Recovery of consciousness after ketamine anesthesia in rats; format: in vivo; details: 8 rats, crossover; ketamine 50 mg/kg IV over 10 min; 5 min later dextroamphetamine 3 mg/kg IV over 2 min; saline mean 6.3 minutes; p<0.05
Experimental: A randomized, blinded, crossover design was used with 8 rats. After intravenous administration of ketamine (50 mg/kg IV) over 10 minutes, all rats became unconscious. […] The difference was statistically significant (p<0.05).

[3] = system: rats sedated with DEX; assay: LFP spectrogram and electromyogram analysis in rats sedated with DEX; format: in vivo; details: infusion after DEX infusion; FIG. 3 bottom panel
Source text: Spectrograms were constructed from continuous LFP recordings from the prefrontal cortex of rats. In these figures, spectral power (dB) at a given frequency (Hz) is represented by color and plotted over time.

[4] = system: rat sedated with DEX; assay: Quadrant crossings in the cage after dexmedetomidine sedation (single rat); format: in vivo
Experimental: The data provided is from a single rat that underwent 3 experiments, with 3-4 days of rest between each session. FIG. 5 is a schematic of the experimental Design.
The rat received an intravenous infusion of dexmedetomidine (DEX, 50 mcg/kg) over 10 minutes, followed by a 5-minute rest period to switch medications. […] Note that 7.4 mg/kg of LDX is enzymatically cleaved to slowly release a total of 2.2 mg/kg of d-AMPH.
The cage was divided into 4 quadrants, and the number of times the rat crossed from one quadrant to another was recorded. Each data point represents the number of quadrant crossings in the cage during the preceding 15 minutes. […] By adjusting the relative doses of d-AMPH and LDX, a combination of these two drugs provided continuous, long-lasting reversal of DEX sedation, without the adverse side effects of administering a larger dose of d-AMPH, e.g., hyperactivity and large increases in heart rate and blood pressure.

[5] = system: rats sedated with DEX; assay: Recovery of consciousness (righting reflex) in rats sedated with DEX; format: in vivo; details: 8 rats, crossover; DEX 50 micrograms/kg IV over 10 min; 5 min later dextroamphetamine 3 mg/kg IV over 2 min; saline mean 92 minutes; p<0.01
Source text: A randomized, blinded, crossover design was used with 8 rats. […] This difference was statistically significant (p<0.01).

[6] = system: rats under propofol and sevoflurane anesthesia; details: Kenny et al., PLoS ONE 2015; cited from earlier work

Compound | half-life [1] | mean time to recovery of consciousness after ketamine [2] [min] | low-frequency LFP power, consciousness and EMG activity [3] | reversal of DEX sedation (movement, quadrant crossings) ([4]; DEX 50 mcg/kg IV over 10 min, d-AMPH 0.8 mg/kg alone, 2-minute IV infusion, FIG. 6) | time after which re-sedation occurred ([4]; DEX 50 mcg/kg IV, d-AMPH 0.8 mg/kg IV alone) [min] | mean time to regain consciousness [5] [min] | reversal of general anesthesia [6]
Cc1cccc([C@H](C)c2cnc[nH]2)c1C [DEX, Dexmedetomidine] | approximately 2 hours |  |  |  |  |  | 
C[C@H](N)Cc1ccccc1 [dextroamphetamine] |  | 11.6 | rapidly decreased low-frequency LFP power, which coincided with return of consciousness (ROC) and increased EMG activity | initially woke up and moved around | 30 | 1.7 | reverse propofol and sevoflurane anesthesia
